Legend:
[1] = Pharmacokinetics of steroidal alkaloids after single oral FTB dose in normal and DNBS-induced colitis rats; assay type: in vivo, Sprague–Dawley rats; conditions: for AUC_%Extrap_obs / AUClast / AUMClast / Cmax / MRT last / Tmax / half-life: oral FTB 1 g/kg single dose, plasma, mean ± SD, n = 5; for Cmax / MRT last / Tmax / half-life: male, Sprague-Dawley, rat, po, 1 g/kg; for half-life under colitis compared with normal conditions / systemic exposure under colitis condition compared with normal state: oral FTB 1 g/kg, DNBS vs normal rats
Description: Ten-week-old male Sprague–Dawley rats were obtained from Samtaco (Osan, Republic of Korea), quarantined, and acclimatized for one week before the experiments. All animal experiments were approved by the Animal Care and Use Committee of Chungnam National University (202304A-CNU-067). The rats were fasted for 14–16 h the day before administration of DNBS (Sigma-Aldrich). After the rats were anesthetized with isoflurane, the colitis group received a single dose of 30 mg/250 μL in 50% ethanol through a medical grade polyurethane catheter, injected rectally into the descending colon 8 cm from the anal sphincter. DNBS was administered slowly over 1 min, and the rats were kept supine in the Trendelenburg position for 3 min after injection to prevent leakage. The normal group received only 50% ethanol, following the same procedure as described above. The pharmacokinetic study was performed four days after DNBS administration, and both the normal and DNBS groups were orally administered a single dose of 1 g/kg FTB. Blood samples were obtained from the tail vein at 0, 0.5, 0.75, 1, 2, 4, 6, 8, 10, 12, 24, and 30 h, and the rats were sacrificed after the last blood collection. The plasma samples obtained were centrifuged at 16,000× g for 15 min and stored at −80 °C until analysis.
Plasma concentrations were measured using UPLC-MS/MS (Agilent Technologies Inc.) in the same manner as described above. 100 μL of plasma was vortexed with 20 μL ammonia water and 800 μL ethyl acetate for 15 min and centrifuged at 16,000× g for 15 min. After evaporating 800 μL of the supernatant under nitrogen at 40 °C, 50 μL of 50% methanol was added. The mixture was then vortexed and centrifuged, and 5 μL of the final extract was used for analysis.
For the plasma concentration analysis, the limit of detection and limit of quantification (LOQ) were defined based on the concentration of the analyte, which generated signal-to-noise (S/N) ratios of 3 and 10, respectively, following the “Guideline on Bioanalytical Method Validation” for the Ministry of Food and Drug Safety in Korea (MFDS 2023). Among the active ingredients of FTB, peimine, peimisine, peiminine, and sipeimine were detected in concentrations above the LOQ —the multiple reaction monitoring conditions of each of them are summarized in Supplementary Table S2. The calibration curves were linear over the concentration range of 0 to 2000 ng/mL, with a correlation coefficient of R^2 > 0.99. Precision and accuracy were evaluated by calculating the intra- and inter-day recoveries of quality control samples at three concentrations: 10, 50, and 100 ng/mL. The intra- and inter-day recoveries were within the range of 84.6 to 115.6%, and the coefficient of variation was less than 10%. Detailed validation results for the analysis method of peimine, peimisine, peiminine, and sipeimine are summarized in Supplementary Table S3.
The pharmacokinetic parameters were calculated based on a non-compartmental model using Monolix 2023R1 (Lixoft SAS, Simulations Plus Inc., Lancaster, CA, USA). The dosage of each component was calculated based on the content of the component within the FTB, and applied in the pharmacokinetics analysis. From the data analyzed, the Cmax of FTB and the time to Cmax (Tmax) were determined. Elimination half-life was obtained by linear regression of log-tranformed concentration data in the late phase. The AUC was estimated using the linear log-trapezoidal and linear up-log-down rules for the time of final concentration in each group.

[2] = cited from earlier work
[3] = test system: RAW 264.7 cells; assay: Cell viability (EZ-Cytox) in RAW 264.7 cells; assay type: cell-based, mouse; conditions: 24 h incubation
Description: (§1) The RAW 264.7, a mouse macrophage cell line (American Type Culture Collection, Manassas, VA, USA), was grown in DMEM medium supplemented with 10% fetal bovine serum and 1% penicillin–streptomycin at 37 °C with 5% CO2.
To determine cell viability against the four steroidal alkaloids, peimine, peimisine, peiminine, and sipeimine, RAW 264.7 cells were seeded at a density of 5 × 10^4 cells/well in 96-well plates and incubated overnight. Cells were then incubated with various concentrations of the four compounds (0, 0.78, 1.56, 3.13, 6.25, 12.5, 25, 50, and 100 μg/mL) for 24 h, respectively. Subsequently, 10 μL of EZ-Cytox (DoGenBio Co., Seoul, Republic of Korea) was added and incubated for 1 h. Absorbance was measured at 450 nm using an enzyme-linked immunosorbent assay reader (Bio-Rad Laboratories, Hercules, CA, USA). Cell viability was calculated by comparing the values measured with those of untreated cells.

[4] = test system: LPS-stimulated RAW 264.7 cells; assay: Pro-inflammatory cytokine mRNA expression (qPCR) in LPS-stimulated RAW 264.7 cells; assay type: cell-based, mouse; conditions: 25 μg/mL; 24 h pretreatment then LPS 4 h; vs LPS alone
Description: as §1
To evaluate the anti-inflammatory effects of the active ingredients in FTB, the cells were seeded in 12-well plates at 3 × 10^5 cells/mL and treated with 25 μg/mL of the four steroidal alkaloids, peimine, peimisine, peiminine and sipeimine, respectively, a concentration determined to be non-toxic according to the cell viability assay. LPS (Sigma-Aldrich, St. Louis, MO, USA) from Escherichia coli O111:B4 was used as a control at a concentration of 10 μg/mL. Cells were pretreated with the compounds for 24 h, followed by treatment with LPS for 4 h. After cells were harvested, total RNA was extracted using a total RNA extraction kit (Samjung Bioscience, Daejeon, Republic of Korea), and the extracted RNA was reverse transcribed into cDNA. The synthesized cDNA was subjected to quantitative polymerase chain reaction to measure the mRNA expression levels of cytokines using the following forward and reverse primers: IL-1β, forward, 5′-[…]-3′; reverse, 5′-[…]-3′; IL-6, forward, 5′-[…]-3′; reverse, 5′-[…]-3′; TNF-α, forward, 5′-[…]-3′; reverse, 5′-[…]-3′; GAPDH, forward, 5′-[…]-3′; reverse, 5′-[…]-3′.

SMILES | AUC_%Extrap_obs ([1]; DNBS-treated (colitis) rats) [%] | AUClast ([1]; DNBS-treated (colitis) rats) | AUMClast ([1]; DNBS-treated (colitis) rats) | Cmax ([1]; DNBS-treated (colitis) rats) [ng/mL] | MRT last ([1]; DNBS-treated (colitis) rats) [h] | Tmax ([1]; DNBS-treated (colitis) rats) [h] | half-life ([1]; DNBS-treated (colitis) rats) [min] | Cmax ([1]; normal rats) [ng/mL] | MRT last ([1]; normal rats) [h] | Tmax ([1]; normal rats) [h] | half-life ([1]; normal rats) [min] | AUC_%Extrap_obs ([1]; normal rats) [%] | AUClast ([1]; normal rats) [h∗ng/mL] | AUMClast ([1]; normal rats) | half-life under colitis compared with normal conditions [1] | systemic exposure under colitis condition compared with normal state [1] | partition coefficient (logP) [2] | concentrations at which no toxicity was shown (cell viability) [3] [µg/mL] | pKa [2] | further results
C[C@H]1CC[C@@H]2N(C1)C[C@H]1[C@@H]3C[C@H]4[C@@H](C[C@H](O)[C@H]5C[C@@H](O)CC[C@@]54C)[C@@H]3CC[C@@H]1[C@]2(C)O [peimine] | 6.6 ± 6.6 | 1076.9 ± 444.1 h∗ng/mL | 2819.7 ± 1408.9 h∗h∗ng/mL | 351 ± 150 | 2.7 ± 0.6 | 1 ± 0.7 | 114 ± 42 | 356 ± 253 | 3.7 ± 0.8 | 0.7 ± 0.2 | 240 ± 150 | 6.7 ± 5.5 | 1311.8 ± 762.6 | 4511.4 ± 2253.8 h∗h∗ng/mL | shorter half-life | no observable difference | 4.1 | 0 to 25 |  | 
C[C@H]1CC[C@@H]2N(C1)C[C@H]1[C@@H]3C[C@H]4[C@@H](CC(=O)[C@H]5C[C@@H](O)CC[C@@]54C)[C@@H]3CC[C@@H]1[C@]2(C)O [peiminine] | 3.3 ± 2.9 | 888.8 ± 286.0 h∗ng/mL | 3149.7 ± 1242.0 h∗h∗ng/mL | 209 ± 51.1 | 3.6 ± 0.6 | 1.3 ± 0.8 | 108 ± 54 | 228 ± 110 | 4.7 ± 1.1 | 1 ± 0.2 | 270 ± 120 | 14.5 ± 15.7 | 1172.4 ± 392.3 | 5302.0 ± 1844.3 h∗h∗ng/mL | shorter half-life | no observable difference | 3.9 | 0 to 25 | approximately 14 | IL-6 mRNA expression lowered [4]: approximately 5 fold
CC1=C2C[C@H]3[C@@H](CC(=O)C4C[C@@H](O)CC[C@@]43C)[C@@H]2CC[C@]12OC1C[C@H](C)CN[C@H]1[C@H]2C (some centres unmarked) [peimisine] | 8.9 ± 11.6 | 16,895.4 ± 5782.1 h∗ng/mL | 126,755.7 ± 54,141.2 h∗h∗ng/mL | 2330 ± 363 | 7.3 ± 1.3 | 1.5 ± 0.8 | 462 ± 294 | 656 ± 672 | 5 ± 2 | 0.9 ± 0.2 | 234 ± 102 | 5.3 ± 4.0 | 3959.3 ± 4738.6 | 23,522.8 ± 33,482.7 h∗h∗ng/mL |  | approximately five times higher | 2.7 | 0 to 25 | approximately 14 | IL-1β mRNA expression lowered [4]: about 6 fold; TNF-α mRNA expression lowered [4]: ~3 fold
C[C@H]1CC[C@@H]2N(C1)C[C@H]1[C@@H]3C[C@H]4[C@@H](CC(=O)[C@H]5C[C@@H](O)CC[C@@]54C)[C@@H]3CC[C@H]1[C@]2(C)O [sipeimine] | 11.0 ± 8.3 | 764.0 ± 285.5 h∗ng/mL | 3588.3 ± 1486.0 h∗h∗ng/mL | 162 ± 97 | 4.7 ± 0.6 | 2.4 ± 1.2 | 192 ± 96 | 64.7 ± 13.4 | 5.4 ± 1.7 | 1.3 ± 0.5 | 414 ± 336 | 10.4 ± 8.6 | 463.5 ± 232.8 | 2675.8 ± 2026.3 h∗h∗ng/mL | shorter half-life | no observable difference | 4.4 | 0 to 25 | approximately 14 | 
